# Tested on: MV-4-11 cells
# Test: Gene expression microarray analysis (Affymetrix PrimeView) and GSEA
# Type: cell-based, human
# Set-up: RFU PODN (11730768_x_at) / Fold change /veh PODN (11730768_x_at) / RFU LINC00158 (11744669_a_at) / Fold change /veh LINC00158 (11744669_a_at) / RFU DUSP10 (11751237_a_at) / Fold change /veh DUSP10 (11751237_a_at) / RFU ID3 (11757404_x_at) / Fold change /veh ID3 (11757404_x_at) / RFU PLEKHG5 (11737974_s_at) / Fold change /veh PLEKHG5 (11737974_s_at) / RFU LRRC4B (11730491_at) / Fold change /veh LRRC4B (11730491_at) / RFU GIMAP4 (11747438_a_at) / Fold change /veh GIMAP4 (11747438_a_at) / RFU KRT8 (11758183_x_at) / Fold change /veh KRT8 (11758183_x_at) / RFU CNN1 (11734310_a_at) / Fold change /veh CNN1 (11734310_a_at) / RFU VPS37D (11726825_at) / Fold change /veh VPS37D (11726825_at) / RFU C10orf10 (11716522_x_at) / Fold change /veh C10orf10 (11716522_x_at) / RFU KIR2DL2 /// KIR2DL4 /// KIR2DL5A /// KIR2DL5B /// KIR2DS1 /// KIR2DS2 /// KIR2DS3 /// KIR2DS4 /// KIR3DL3 /// KIR3DL3 /// KIR3DS1 (11738374_at) / Fold change /veh KIR2DL2 /// KIR2DL4 /// KIR2DL5A /// KIR2DL5B /// KIR2DS1 /// KIR2DS2 /// KIR2DS3 /// KIR2DS4 /// KIR3DL3 /// KIR3DL3 /// KIR3DS1 (11738374_at) / RFU C1QL1 (11718748_at) / Fold change /veh C1QL1 (11718748_at) / RFU TMPRSS4 (11747572_a_at) / Fold change /veh TMPRSS4 (11747572_a_at) / RFU HAMP (11756126_x_at) / Fold change /veh HAMP (11756126_x_at) / RFU RNFT2 (11725882_a_at) / Fold change /veh RNFT2 (11725882_a_at) / RFU NR4A2 (11747474_a_at) / Fold change /veh NR4A2 (11747474_a_at) / RFU ABCC12 (11746883_a_at) / Fold change /veh ABCC12 (11746883_a_at) / RFU TMEM136 (11760407_x_at) / Fold change /veh TMEM136 (11760407_x_at) / RFU CLDN22 /// WWC2 (11732394_at) / Fold change /veh CLDN22 /// WWC2 (11732394_at) / RFU HLA-DPB1 (11760878_x_at) / Fold change /veh HLA-DPB1 (11760878_x_at) / RFU SPINT1 (11716480_a_at) / Fold change /veh SPINT1 (11716480_a_at) / RFU GAP43 (11754022_s_at) / Fold change /veh GAP43 (11754022_s_at) / RFU A4GNT (11735810_at) / Fold change /veh A4GNT (11735810_at) / RFU PRB3 (11715151_x_at) / Fold change /veh PRB3 (11715151_x_at) / RFU TUBB4B (11761932_at) / Fold change /veh TUBB4B (11761932_at) / RFU CAPN14 (11732068_a_at) / Fold change /veh CAPN14 (11732068_a_at) / RFU TMCC2 (11721928_a_at) / Fold change /veh TMCC2 (11721928_a_at) / RFU IRGQ (11745062_a_at) / Fold change /veh IRGQ (11745062_a_at) / RFU FAM174B (11720279_a_at) / Fold change /veh FAM174B (11720279_a_at) / RFU TMPRSS4 (11748680_a_at) / Fold change /veh TMPRSS4 (11748680_a_at) / RFU FAM212B (11763350_a_at) / Fold change /veh FAM212B (11763350_a_at) / RFU PLEKHG5 (11743358_a_at) / Fold change /veh PLEKHG5 (11743358_a_at) / RFU ZSCAN30 (11745921_a_at) / Fold change /veh ZSCAN30 (11745921_a_at) / RFU CMKLR1 (11741424_a_at) / Fold change /veh CMKLR1 (11741424_a_at) / RFU LOC101060620 /// MAPK8IP1 (11723275_at) / Fold change /veh LOC101060620 /// MAPK8IP1 (11723275_at) / RFU SPTSSB (11747773_x_at) / Fold change /veh SPTSSB (11747773_x_at) / RFU PRSS12 (11739890_at) / Fold change /veh PRSS12 (11739890_at) / RFU BIN1 (11741810_x_at) / Fold change /veh BIN1 (11741810_x_at) / RFU WNT11 (11732464_a_at) / Fold change /veh WNT11 (11732464_a_at) / RFU C10orf10 (11716521_a_at) / Fold change /veh C10orf10 (11716521_a_at) / RFU C5orf56 (11738089_at) / Fold change /veh C5orf56 (11738089_at) / RFU CYB561 (11721691_x_at) / Fold change /veh CYB561 (11721691_x_at) / RFU ANKRD19P (11752326_a_at) / Fold change /veh ANKRD19P (11752326_a_at) / RFU OR2T12 /// OR2T33 /// OR2T8 (11738714_s_at) / Fold change /veh OR2T12 /// OR2T33 /// OR2T8 (11738714_s_at) / RFU VCAN (11748164_a_at) / Fold change /veh VCAN (11748164_a_at) / RFU JSRP1 (11732532_at) / Fold change /veh JSRP1 (11732532_at) / RFU KRTAP10-11 (11738290_x_at) / Fold change /veh KRTAP10-11 (11738290_x_at) / RFU MYO3A (11730013_a_at) / Fold change /veh MYO3A (11730013_a_at) / RFU EBF3 (11725865_a_at) / Fold change /veh EBF3 (11725865_a_at) / RFU CAMK2N1 (11719241_x_at) / Fold change /veh CAMK2N1 (11719241_x_at) / RFU C5orf56 (11738088_a_at) / Fold change /veh C5orf56 (11738088_a_at) / RFU OLFML3 (11715873_a_at) / Fold change /veh OLFML3 (11715873_a_at) / RFU LOC100653217 /// NTM (11731650_a_at) / Fold change /veh LOC100653217 /// NTM (11731650_a_at) / RFU MAPK11 (11762145_a_at) / Fold change /veh MAPK11 (11762145_a_at) / RFU FIZ1 (11724087_x_at) / Fold change /veh FIZ1 (11724087_x_at) / RFU OASL (11726364_x_at) / Fold change /veh OASL (11726364_x_at) / RFU SOX15 (11748057_x_at) / Fold change /veh SOX15 (11748057_x_at) / RFU CD79A (11719716_a_at) / Fold change /veh CD79A (11719716_a_at) / RFU HIST1H1D (11736915_at) / Fold change /veh HIST1H1D (11736915_at) / RFU CASKIN2 (11723855_a_at) / Fold change /veh CASKIN2 (11723855_a_at) / RFU LOC730098 (11760151_x_at) / Fold change /veh LOC730098 (11760151_x_at) / RFU OR4N2 (11742367_at) / Fold change /veh OR4N2 (11742367_at) / RFU PRRT2 (11749266_a_at) / Fold change /veh PRRT2 (11749266_a_at) / RFU SNX32 (11753110_a_at) / Fold change /veh SNX32 (11753110_a_at) / RFU CDHR5 (11726645_a_at) / Fold change /veh CDHR5 (11726645_a_at) / RFU RCAN1 (11760418_a_at) / Fold change /veh RCAN1 (11760418_a_at) / RFU FAM167A (11723789_a_at) / Fold change /veh FAM167A (11723789_a_at) / RFU FAM26E (11764081_at) / Fold change /veh FAM26E (11764081_at) / RFU ISYNA1 (11749810_s_at) / Fold change /veh ISYNA1 (11749810_s_at) / RFU ACY1 (11761880_at) / Fold change /veh ACY1 (11761880_at) / RFU 11764098_at / Fold change /veh 11764098_at / RFU SAMD14 (11745864_x_at) / Fold change /veh SAMD14 (11745864_x_at) / RFU NPB (11741838_a_at) / Fold change /veh NPB (11741838_a_at) / RFU TMPRSS6 (11731388_a_at) / Fold change /veh TMPRSS6 (11731388_a_at) / RFU KRTAP10-2 (11738614_at) / Fold change /veh KRTAP10-2 (11738614_at) / RFU ARHGAP8 /// PRR5-ARHGAP8 (11727945_x_at) / Fold change /veh ARHGAP8 /// PRR5-ARHGAP8 (11727945_x_at) / RFU KRTAP5-7 /// NADSYN1 (11734609_at) / Fold change /veh KRTAP5-7 /// NADSYN1 (11734609_at) / RFU RASL12 (11751679_a_at) / Fold change /veh RASL12 (11751679_a_at) / RFU CDKN2B (11736163_a_at) / Fold change /veh CDKN2B (11736163_a_at) / RFU PRF1 (11729649_at) / Fold change /veh PRF1 (11729649_at) / RFU, ZNF638 /// ZNF638-IT1 / Fold change vs veh, ZNF638 /// ZNF638-IT1 / RFU, PANK3 / Fold change vs veh, PANK3 / RFU, SH3YL1 / Fold change vs veh, SH3YL1 / RFU, ZEB2 / Fold change vs veh, ZEB2 / RFU, NRIP1 / Fold change vs veh, NRIP1 / RFU, PTTG1IP / Fold change vs veh, PTTG1IP / RFU, CAPN2 / Fold change vs veh, CAPN2 / RFU, MED14 / Fold change vs veh, MED14 / RFU, SNORA58 / Fold change vs veh, SNORA58 / RFU, C1orf63 / Fold change vs veh, C1orf63 / RFU, LRRFIP1 / Fold change vs veh, LRRFIP1 / RFU, NDUFAF7 / Fold change vs veh, NDUFAF7 / RFU, SLC12A2 / Fold change vs veh, SLC12A2 / RFU, IBTK / Fold change vs veh, IBTK / RFU, ESF1 / Fold change vs veh, ESF1 / Fold change vs veh, TMEM50B / RFU, TAOK1 / Fold change vs veh, TAOK1 / RFU, ACBD3 / Fold change vs veh, ACBD3 / RFU, TMA16 / Fold change vs veh, TMA16 / RFU, RWDD3 / Fold change vs veh, RWDD3 / RFU, BCAT1 / Fold change vs veh, BCAT1 / RFU, EDEM3 / Fold change vs veh, EDEM3 / RFU, TMEM33 / Fold change vs veh, TMEM33 / RFU, WDR75 / Fold change vs veh, WDR75 / RFU, AHCTF1 / Fold change vs veh, AHCTF1 / RFU, TFRC / Fold change vs veh, TFRC / RFU, ZDHHC17 / Fold change vs veh, ZDHHC17 / RFU, NOM1 / Fold change vs veh, NOM1 / RFU, ARL8B / Fold change vs veh, ARL8B / RFU, ZBTB11 / Fold change vs veh, ZBTB11 / RFU, TAMM41 / Fold change vs veh, TAMM41 / RFU, KIAA1704 /// LOC100996395 / Fold change vs veh, KIAA1704 /// LOC100996395 / RFU, ING1 / Fold change vs veh, ING1 / RFU, TRMT61B / Fold change vs veh, TRMT61B / RFU, FUBP3 / Fold change vs veh, FUBP3 / RFU, TP53 / Fold change vs veh, TP53 / RFU, TNKS2 / Fold change vs veh, TNKS2 / RFU, ZFP14 / Fold change vs veh, ZFP14 / RFU, ACTR2 / Fold change vs veh, ACTR2 / RFU, PPP3R1 / Fold change vs veh, PPP3R1 / RFU, PIK3R1 / Fold change vs veh, PIK3R1 / RFU, HNRNPA1 / Fold change vs veh, HNRNPA1 / RFU, RNF170 / Fold change vs veh, RNF170 / RFU, ZNF28 / Fold change vs veh, ZNF28 / RFU, RNGTT / Fold change vs veh, RNGTT / RFU, OGT / Fold change vs veh, OGT / RFU, BRD1 / Fold change vs veh, BRD1 / RFU, MARS / Fold change vs veh, MARS / RFU, ZNF655 / Fold change vs veh, ZNF655 / RFU, FAHD1 / Fold change vs veh, FAHD1 / RFU, BDP1 / Fold change vs veh, BDP1 / RFU, LRRCC1 / Fold change vs veh, LRRCC1 / RFU, ARID1A / Fold change vs veh, ARID1A / RFU, ZNF146 / Fold change vs veh, ZNF146 / RFU, ZNF330 / Fold change vs veh, ZNF330 / RFU, GPN3 / Fold change vs veh, GPN3 / RFU, C9orf123 / Fold change vs veh, C9orf123 / RFU, N4BP2L2 / Fold change vs veh, N4BP2L2 / RFU, ARFIP1 / Fold change vs veh, ARFIP1 / RFU, FAM179B / Fold change vs veh, FAM179B / RFU, BCL10 / Fold change vs veh, BCL10 / RFU, UHRF1BP1L / Fold change vs veh, UHRF1BP1L / RFU, BET1 / Fold change vs veh, BET1 / RFU, CNOT2 / Fold change vs veh, CNOT2 / RFU, ZNF268 / Fold change vs veh, ZNF268 / Fold change vs veh, ZNF507 / RFU, DGCR2 / Fold change vs veh, DGCR2 / RFU, WDSUB1 / Fold change vs veh, WDSUB1 / Fold change vs veh, HSP90B1 /// MIR3652 / RFU, ADSS / Fold change vs veh, ADSS / RFU, GK / Fold change vs veh, GK / RFU, ZNF148 / Fold change vs veh, ZNF148 / RFU, TAF9 / Fold change vs veh, TAF9 / RFU, SLC1A5 / Fold change vs veh, SLC1A5 / RFU, SLMO2 / Fold change vs veh, SLMO2 / RFU, ABCC4 / Fold change vs veh, ABCC4 / RFU, LOC101060439 /// RAP1B / Fold change vs veh, LOC101060439 /// RAP1B / RFU, RFX7 / Fold change vs veh, RFX7 / RFU, GTPBP10 / Fold change vs veh, GTPBP10 / RFU, CNEP1R1 / Fold change vs veh, CNEP1R1 / RFU, BIVM-ERCC5 /// ERCC5 / Fold change vs veh, BIVM-ERCC5 /// ERCC5 / RFU, ILF3 / Fold change vs veh, ILF3 / RFU 11762660_at / Fold change /veh 11762660_at / RFU VCAN (11757783_s_at) / Fold change /veh VCAN (11757783_s_at) / RFU DDX43 (11728927_at) / Fold change /veh DDX43 (11728927_at) / RFU KRT8 (11758188_x_at) / Fold change /veh KRT8 (11758188_x_at) / RFU NKD1 (11759106_at) / Fold change /veh NKD1 (11759106_at) / RFU SRD5A1 (11742802_a_at) / Fold change /veh SRD5A1 (11742802_a_at) / RFU TPSAB1 /// TPSB2 (11721975_s_at) / Fold change /veh TPSAB1 /// TPSB2 (11721975_s_at) / RFU GSTM3 (11746129_a_at) / Fold change /veh GSTM3 (11746129_a_at) / RFU IL23R (11737362_x_at) / Fold change /veh IL23R (11737362_x_at) / RFU TMEM51 (11727254_a_at) / Fold change /veh TMEM51 (11727254_a_at) / RFU PIWIL2 (11732686_x_at) / Fold change /veh PIWIL2 (11732686_x_at) / RFU ORM1 (11744905_x_at) / Fold change /veh ORM1 (11744905_x_at) / RFU CCDC152 (11743942_at) / Fold change /veh CCDC152 (11743942_at) / RFU ECM1 (11717891_a_at) / Fold change /veh ECM1 (11717891_a_at) / RFU IL23R (11748794_a_at) / Fold change /veh IL23R (11748794_a_at) / RFU TNFAIP8L3 (11732012_x_at) / Fold change /veh TNFAIP8L3 (11732012_x_at) / RFU MBOAT4 (11741988_at) / Fold change /veh MBOAT4 (11741988_at) / RFU 11764193_at / Fold change /veh 11764193_at / RFU TMEM53 (11763286_at) / Fold change /veh TMEM53 (11763286_at) / RFU MAGEB2 (11727129_at) / Fold change /veh MAGEB2 (11727129_at) / RFU TMEM200A (11744735_a_at) / Fold change /veh TMEM200A (11744735_a_at) / RFU CCDC152 (11751479_a_at) / Fold change /veh CCDC152 (11751479_a_at) / RFU FAM211A (11726209_a_at) / Fold change /veh FAM211A (11726209_a_at) / RFU RGS16 (11746705_a_at) / Fold change /veh RGS16 (11746705_a_at) / RFU VCAN (11755009_s_at) / Fold change /veh VCAN (11755009_s_at) / RFU RHOB (11743442_s_at) / Fold change /veh RHOB (11743442_s_at) / RFU RGS16 (11720943_a_at) / Fold change /veh RGS16 (11720943_a_at) / RFU RGS16 (11720944_at) / Fold change /veh RGS16 (11720944_at) / RFU, VPS4B / Fold change vs veh, VPS4B / RFU, CREB1 / Fold change vs veh, CREB1 / RFU, DNAJC13 / Fold change vs veh, DNAJC13 / RFU, GNAQ / Fold change vs veh, GNAQ / RFU, CDK5R1 / Fold change vs veh, CDK5R1 / RFU, ZRANB3 / Fold change vs veh, ZRANB3 / RFU, CUL4A / Fold change vs veh, CUL4A / RFU, CCNY / Fold change vs veh, CCNY / RFU, UFL1 / Fold change vs veh, UFL1 / RFU, COG3 / Fold change vs veh, COG3 / RFU, DIAPH2 / Fold change vs veh, DIAPH2 / RFU, SKA2 / Fold change vs veh, SKA2 / RFU, AFF3 / Fold change vs veh, AFF3 / RFU, LMF1 / Fold change vs veh, LMF1 / RFU, IPO11 / Fold change vs veh, IPO11 / RFU, DFFB / Fold change vs veh, DFFB / RFU, FOXP1 / Fold change vs veh, FOXP1 / RFU, CARD8 / Fold change vs veh, CARD8 / RFU, STRN3 / Fold change vs veh, STRN3 / RFU, ADK / Fold change vs veh, ADK / RFU, RASSF2 / Fold change vs veh, RASSF2 / RFU, WIPF1 / Fold change vs veh, WIPF1 / RFU, LARP1B / Fold change vs veh, LARP1B / RFU, RASA1 / Fold change vs veh, RASA1 / RFU, RB1 / Fold change vs veh, RB1 / RFU, PPFIA1 / Fold change vs veh, PPFIA1 / RFU, MAT2A / Fold change vs veh, MAT2A / RFU, CCT5 / Fold change vs veh, CCT5 / RFU, WDR92 / Fold change vs veh, WDR92 / RFU, CUX1 / Fold change vs veh, CUX1 / RFU, TTC7A / Fold change vs veh, TTC7A / RFU, TMEM135 / Fold change vs veh, TMEM135 / RFU, DEPTOR / Fold change vs veh, DEPTOR / RFU, CPM / Fold change vs veh, CPM / RFU, DNAJB6 / Fold change vs veh, DNAJB6 / RFU, CACNA2D3 / Fold change vs veh, CACNA2D3 / RFU, DTX4 / Fold change vs veh, DTX4 / RFU, TFCP2 / Fold change vs veh, TFCP2 / RFU, GMCL1 /// GMCL1P1 / Fold change vs veh, GMCL1 /// GMCL1P1 / RFU, AEBP2 / Fold change vs veh, AEBP2 / RFU, SNHG1 /// SNORD22 /// SNORD25 /// SNORD26 /// SNORD27 /// SNORD28 /// SNORD29 /// SNORD31 / Fold change vs veh, SNHG1 /// SNORD22 /// SNORD25 /// SNORD26 /// SNORD27 /// SNORD28 /// SNORD29 /// SNORD31 / Fold change (Aza/veh), C12orf56 (ProbeSet 11735607_a_at) / Fold change (ACY-1035/veh), C12orf56 (ProbeSet 11735607_a_at) / Fold change (Aza/veh), FGFR1OP (ProbeSet 11751329_s_at) / Fold change (ACY-1035/veh), FGFR1OP (ProbeSet 11751329_s_at) / Fold change (Aza/veh), VPS36 (ProbeSet 11739960_a_at) / Fold change (ACY-1035/veh), VPS36 (ProbeSet 11739960_a_at) / RFU SYPL1 (11715823_x_at) / Fold change /veh SYPL1 (11715823_x_at) / RFU IGFBP7 (11715501_s_at) / Fold change /veh IGFBP7 (11715501_s_at) / RFU REEP3 (11722064_at) / Fold change /veh REEP3 (11722064_at) / RFU IGLL1 (11728026_x_at) / Fold change /veh IGLL1 (11728026_x_at): dose or concentration left out as unconfirmed
# Conditions: MV-4-11 cells, 48 hours
compound,measurement,value
Nc1ccc(-c2cccs2)cc1NC(=O)c1ccc2c(c1)cc(C1CC1)n2CCN1CCOCC1 [ACY-1035],RFU C10orf10 (11716521_a_at),34.07 RFU

# — PMC5218480 (PLoS ONE, 2017)
